Measurements as given in ChEMBL document CHEMBL6120970, “Discovery and Functional Characterization of a Potent, Selective, and Metabolically Stable PROTAC of the Protein Kinases DYRK1A and DYRK1B” (J Med Chem, 2024).
Converted amounts (≈) assume the structure as drawn. The source made the active and inactive calls. The calls are words filed in the database; no cut-off is given here.

How the values were obtained:
[1] = target: T1, Protein cereblon/Dual specificity tyrosine-phosphorylation-regulated kinase 1A (Homo sapiens, UniProt Q13627+Q96SW2); experiment: Competitive binding affinity to CRBN/DYRK1A (unknown origin) assessed as dissociation constant; type: protein assay
[2] = target: T2, Protein cereblon/Dual specificity tyrosine-phosphorylation-regulated kinase 1B (Homo sapiens) (UniProt Q9Y463+Q96SW2); experiment: PROTAC activity at CRBN/HibiT-tagged DYRK1B in Flp-In-T-REx-293 cells assessed as induction of degradation of DYRK1B by measuring maximum efficacy at 1 uM measured after 24 hrs by NanoBiT luciferase assay relative to control; type: cell-based
[3] = target: T1, Protein cereblon/Dual specificity tyrosine-phosphorylation-regulated kinase 1A; experiment: PROTAC activity at CRBN/HibiT-tagged DYRK1A in Flp-In-T-REx-293 cells assessed as induction of degradation of DYRK1A at 100 to 300 nM by measured after 24 hrs by NanoBiT luciferase assay; type: cell-based; settings: dose 100-300 nM
[4] = target: T2, Protein cereblon/Dual specificity tyrosine-phosphorylation-regulated kinase 1B (Homo sapiens); experiment: PROTAC activity at CRBN/DYRK1B in HEK293 cells assessed as induction of degradation of DYRK1B by measuring maximum efficacy at 1 to 10000 nM incubated for 24 hrs relative to control; type: cell-based; settings: dose 1-10000 nM
[5] = target: T1, Protein cereblon/Dual specificity tyrosine-phosphorylation-regulated kinase 1A; experiment: PROTAC activity at CRBN/DYRK1A in HEK293 cells assessed as induction of degradation of DYRK1A at 100 nM measured for 48 hrs by Western blot analysis; type: cell-based
HEK293 = experiment: Downregulation of DYRK1B mRNA expression in HEK293 cells at 100 nM measured after 24 hrs by qRT-PCR analysis; type: functional, cell-based; settings: Homo sapiens
[6] = target: T2, Protein cereblon/Dual specificity tyrosine-phosphorylation-regulated kinase 1B (Homo sapiens); experiment: PROTAC activity at CRBN/DYRK1B in HEK293 cells overexpressing DYRK1B p65 assessed as induction of degradation of DYRK1B at 1 uM measured after 24 hrs by Western blot analysis; type: cell-based
[7] = target: T1, Protein cereblon/Dual specificity tyrosine-phosphorylation-regulated kinase 1A; experiment: PROTAC activity at CRBN/HibiT-tagged DYRK1A in HEK293 cells assessed as induction of degradation of DYRK1A at 1 uM measured after 24 hrs by Western blot analysis; type: cell-based
[8] = target: T1, Protein cereblon/Dual specificity tyrosine-phosphorylation-regulated kinase 1A; experiment: PROTAC activity at CRBN/DYRK1A in HEK293 cells assessed as induction of degradation of DYRK1A at 100 nM pretreated with lenalidomide followed by compound addition and incubated for 8 hrs; type: cell-based
[9] = target: T1, Protein cereblon/Dual specificity tyrosine-phosphorylation-regulated kinase 1A; experiment: PROTAC activity at CRBN/DYRK1A in HEK293 cells assessed as induction of degradation of DYRK1A at 100 nM pretreated with MLN4924 followed by compound addition and incubated for 8 hrs; type: cell-based
[10] = target: T2, Protein cereblon/Dual specificity tyrosine-phosphorylation-regulated kinase 1B (Homo sapiens); experiment: PROTAC activity at CRBN/DYRK1B in HEK293 cells assessed as induction of degradation of DYRK1B at 100 nM pretreated with MLN4924 followed by compound addition and incubated for 8 hrs; type: cell-based
[11] = target: T1, Protein cereblon/Dual specificity tyrosine-phosphorylation-regulated kinase 1A; experiment: PROTAC activity at CRBN/DYRK1A in HEK293 cells assessed as induction of degradation of DYRK1A at 100 nM pretreated with CB-5083 followed by compound addition and incubated for 8 hrs; type: cell-based
[12] = target: T2, Protein cereblon/Dual specificity tyrosine-phosphorylation-regulated kinase 1B (Homo sapiens); experiment: PROTAC activity at CRBN/DYRK1B in Flp-In-T-REx-293 cells overexpressing GFP-DYRK1B assessed as initial rate of degradation at 1 uM measured upto 6 hrs by fluorescence based phase contrast microscopy analysis; type: cell-based
[13] = target: T2, Protein cereblon/Dual specificity tyrosine-phosphorylation-regulated kinase 1B (Homo sapiens); experiment: PROTAC activity at CRBN/DYRK1B in Flp-In-T-REx-293 cells overexpressing GFP-DYRK1B assessed as half life at 1 uM measured upto 6 hrs by fluorescence based phase contrast microscopy analysis; type: cell-based
[14] = target: T2, Protein cereblon/Dual specificity tyrosine-phosphorylation-regulated kinase 1B (Homo sapiens); experiment: PROTAC activity at CRBN/DYRK1B in Flp-In-T-REx-293 cells overexpressing GFP-DYRK1B assessed as maximal reduction in GFP fluorescence at 1 uM measured upto 6 hrs by fluorescence based phase contrast microscopy analysis relative to control; type: cell-based
[15] = target: T1, Protein cereblon/Dual specificity tyrosine-phosphorylation-regulated kinase 1A; experiment: PROTAC activity at CRBN/DYRK1A in human PANC-1 cells assessed as induction of degradation of DYRK1A at 100 nM incubated for 8 hrs; type: cell-based
[16] = target: T1, Protein cereblon/Dual specificity tyrosine-phosphorylation-regulated kinase 1A; experiment: PROTAC activity at CRBN/DYRK1A in human OVCAR-3 cells assessed as induction of degradation of DYRK1A at 100 nM incubated for 8 hrs; type: cell-based
[17] = target: T1, Protein cereblon/Dual specificity tyrosine-phosphorylation-regulated kinase 1A; experiment: PROTAC activity at CRBN/DYRK1A in human SH-SY5Y cells assessed as induction of degradation of DYRK1A at 100 nM incubated for 24 hrs; type: cell-based
[18] = target: T1, Protein cereblon/Dual specificity tyrosine-phosphorylation-regulated kinase 1A; experiment: PROTAC activity at CRBN/DYRK1A in HEK293 cells expressing GFP-SF3B1 assessed as inhibition of SF3B1 phosphorylation at 10 nM measured for 48 hrs by Western blot analysis; type: cell-based
[19] = target: T2, Protein cereblon/Dual specificity tyrosine-phosphorylation-regulated kinase 1B (Homo sapiens); experiment: PROTAC activity at CRBN/DYRK1B in HEK293 cells assessed as induction of degradation of DYRK1B at 100 nM incubated for 24 hrs; type: cell-based
SH-SY5Y = experiment: Cytotoxicity against human SH-SY5Y cells assessed as reduction in cell viability at 100 nM measured upto 96 hrs in presence of cisplatin by real-time cell analysis; type: functional, cell-based
[20] = Solubility of the compound in PBS buffer; type: physicochemical
[21] = Solubility of the compound in FaSSIF buffer; type: physicochemical
[22] = Half life in mouse plasma; type: ADME, cell-free
[23] = Metabolic stability in rat liver microsomes assessed as half life; type: ADME, Microsome
[24] = Metabolic stability in human liver microsomes assessed as half life; type: ADME, Microsome
[25] = Metabolic stability in human liver microsomes assessed as intrinsic clearance; type: ADME, Microsome; settings: read-out: CLH
[26] = Half life in mouse blood; type: ADME, tissue-based
[27] = Permeability of the compound by PAMPA method; type: ADME; settings: read-out: permeability
[28] = Permeability of the compound in human Caco-2 cells across basolateral side to apical side; type: ADME, cell-based; settings: read-out: permeability
[29] = target: T1, Protein cereblon/Dual specificity tyrosine-phosphorylation-regulated kinase 1A; experiment: Competitive binding affinity to CRBN/DYRK1A (unknown origin) assessed as residence time; type: protein assay
[30] = Clearance in mouse at 1 mg/kg, iv administered as single dose; type: ADME, organism-based; settings: in vivo
[31] = Volume of distribution at steady state in mouse at 1 mg/kg, iv administered as single dose; type: ADME, organism-based; settings: in vivo, read-out: Vdss
[32] = AUC infinity in mouse at 1 mg/kg, iv administered as single dose; type: ADME, organism-based; settings: in vivo
[33] = MRT in mouse at 1 mg/kg, iv administered as single dose; type: ADME, organism-based; settings: in vivo
[34] = Tmax in mouse at 10 mg/kg, ip administered as single dose; type: ADME, organism-based; settings: in vivo
[35] = AUC last in mouse at 10 mg/kg, ip administered as single dose; type: ADME, organism-based; settings: in vivo
[36] = AUC infinity in mouse at 10 mg/kg, ip administered as single dose; type: ADME, organism-based; settings: in vivo
[37] = Half life in mouse at 10 mg/kg, po administered as single dose; type: ADME, organism-based; settings: in vivo
[38] = AUC infinity in mouse at 10 mg/kg, po administered as single dose; type: ADME, organism-based; settings: in vivo

With Cc1nc2ccc(-c3ccnc(N)c3)nc2n1-c1ccc(N2CCN(CC#Cc3ccc(N4CCC(C(=O)N5CCC(n6cc(CNc7cccc8c7C(=O)N(C7CCC(=O)NC7=O)C8=O)cn6)CC5)CC4)nc3)CC2)c(F)c1 (stereo not given) the Kd [1] was 6.3 nM, the Emax [2] was 66% and the Activity [3] was “Active”. For the same compound, the Emax [4] was 50%, the Activity [5] was “Active” and the Activity (HEK293) was “inactive”. For the same compound, the Activity [6] was “inactive”, the Activity [7] was “Active” and the Activity [8] was “inactive”. The Activity [9] was “inactive”, the Activity [10] was “inactive” and the Activity [11] was “inactive”. The Activity [12] was 1.16 h⁻¹, the T1/2 [13] was 0.6 h and the Emax [14] was 86%. The Activity [15] was “Active; Compound Showed Partial Degradation”, the Activity [16] was “inactive” and the Activity [17] was “Active”. The Activity [18] was “Active”, the Activity [19] was “Active” and the Activity (SH-SY5Y) was “Active; Compound Showed Moderate Toxicity”. For the same compound, the solubility [20] was < 0.009 µM, the solubility [21] was 0.16 µM (≈ 0.17 µg/mL) and the half-life [22] was 6.97 h. It also gave a half-life [23] of 1.64 h, a half-life [24] of 2.28 h and a CLint scaled [25] of 10.1 mL/min/kg. The half-life [26] was 15.2 h, the Papp [27] was < 0.005 ×10⁻⁶ cm/s and the Papp B→A [28] was < 0.243 ×10⁻⁶ cm/s. It also gave a TIME [29] of 0.383 h, a clearance [30] of 7.1 mL/min/kg and a Vd [31] of 0.614 L/kg. For the same compound, the AUC(0-inf) [32] was 2470 ng·h/mL, the MRT [33] was 1.4 h and the Tmax [34] was 0.25 h. The AUC(0-t) [35] was 26300 ng·h/mL, the AUC(0-inf) [36] was 27100 ng·h/mL and the half-life [37] was 2.11 h. For the same compound, the AUC(0-inf) [38] was 64 ng·h/mL.
